In the supplement of paper PMC10307832:

Experiments:
Assay in all cases: relative viability (nuclei count vs DMSO), 5 days (fraction); higher = more cells survive
[1] = compound: C1COCCN1C2=NC(=NC3=C2OC4=C3C=CC=N4)C5=CC(=CC=C5)NC(=O)C6=CN=C(C=C6)N + N=C(N)NC(=N)NCCc1ccccc1 [Phenformin] (partner 250 µM)
How it was run: (§1)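 Relative viability is defined as nuclei in treated wells over nuclei in vehicle wells. Duplicate plates were run and medians reported. Lung cancer cell lines in 1536-well plates were dosed by pin tool one day after seeding, with one drug or with a fixed anchor-drug dose plus five library-drug doses (not always all listed) in √10 steps, and nuclei were counted after 5 days.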

[2] = compound: C1COCCN1C2=NC(=NC3=C2OC4=C3C=CC=N4)C5=CC(=CC=C5)NC(=O)C6=CN=C(C=C6)N + CC(=O)c1c(C)c2cnc(Nc3ccc(N4CCNCC4)cn3)nc2n(C2CCCC2)c1=O [Palbociclib] (partner 0.5 µM)
How it was run: as §1

Entinostat + Bortezomib = compound: Nc1ccccc1NC(=O)c1ccc(CNC(=O)OCc2cccnc2)cc1 [Entinostat] + CC(C)C[C@H](NC(=O)[C@H](Cc1ccccc1)NC(=O)c1cnccn1)B(O)O [Bortezomib] (partner 0.002 µM)
How it was run: as §1

SGI-1776 + Crizotinib = compound: CN1CCC(CNc2ccc3ncc(-c4cccc(OC(F)(F)F)c4)n3n2)CC1 [SGI-1776] + C[C@@H](Oc1cc(-c2cnn(C3CCNCC3)c2)cnc1N)c1c(Cl)ccc(F)c1Cl [Crizotinib] (partner 1 µM)
How it was run: as §1

Cell Line	relative viability ([1]; first compound 0.02 µM)	relative viability ([1]; first compound 0.06325 µM)	relative viability ([1]; first compound 0.2 µM)	relative viability ([1]; first compound 0.6325 µM)	relative viability ([1]; first compound 2 µM)	relative viability ([2]; first compound 0.02 µM)	relative viability ([2]; first compound 0.06325 µM)	relative viability ([2]; first compound 0.2 µM)	relative viability ([2]; first compound 0.6325 µM)	relative viability ([2]; first compound 2 µM)	relative viability (Entinostat + Bortezomib; first compound 0.02 µM)	relative viability (Entinostat + Bortezomib; first compound 0.06325 µM)	relative viability (Entinostat + Bortezomib; first compound 0.2 µM)	relative viability (Entinostat + Bortezomib; first compound 0.6325 µM)	relative viability (Entinostat + Bortezomib; first compound 2 µM)	relative viability (SGI-1776 + Crizotinib; first compound 0.08 µM)	relative viability (SGI-1776 + Crizotinib; first compound 0.8 µM)	relative viability (SGI-1776 + Crizotinib; first compound 2.53 µM)	relative viability (SGI-1776 + Crizotinib; first compound 8 µM)
NCI-H2126	0.535	0.553	0.524	0.461	0.441	0.297	0.367	0.345	0.388	0.36	1.13	1.11	1.1	0.885	0.809	1.01	1.04	1.08	0.968
NCI-H727	0.441	0.629	0.502	0.469	0.458	0.579	0.592	0.613	0.666	0.77	0.714	0.965	0.754	0.574	0.329	0.831	0.79	0.863	0.48
EMC-BAC-2	0.543	0.56	0.451	0.469	0.304	0.54	0.545	0.501	0.498	0.456	1.11	1.16	1.1	0.898	0.516	0.838	0.7	0.701	0.461
NCI-H1437	0.343	0.351	0.286	0.225	0.114	0.3	0.312	0.269	0.295	0.2	0.438	0.323	0.239	0.168	0.126	0.869	0.9	1.02	0.952
NCI-H2347	0.356	0.369	0.308	0.449	0.277	0.443	0.413	0.4	0.48	0.441	0.969	1.01	0.557	0.318	0.262	0.687	0.637	0.772	0.511
NCI-H1666	0.577	0.608	0.473	0.567	0.442	0.627	0.681	0.672	0.622	0.571	0.855	0.694	0.741	0.441	0.321	1.08	0.934	0.803	0.668
NCI-H1993	0.483	0.498	0.501	0.513	0.522	0.683	0.72	0.543	0.632	0.467	1.1	1.16	1	0.723	0.543	0.917	0.894	0.858	0.725
COR-L23	0.426	0.445	0.418	0.433	0.218	0.262	0.314	0.3	0.307	0.229	0.994	0.881	0.964	0.423	0.147	0.821	0.491	0.519	0.495
HCC-44	0.182	0.191	0.137	0.157	0.171	0.952	0.987	0.96	1.01	1.01	0.861	0.758	0.698	0.373	0.269	0.818	0.828	0.867	0.764
LU99A	0.845	0.876	0.78	0.371	0.255	0.412	0.448	0.361	0.343	0.29	1.02	1.26	1	0.801	0.784	0.621	0.529	0.549	0.288
NCI-H460	0.554	0.57	0.512	0.144	0.0234	0.149	0.186	0.112	0.146	0.0961	1.09	1.05	0.85	0.0581	0.0179	0.973	0.573	0.471	0.0428
NCI-H650	0.453	0.469	0.417	0.457	0.431	0.308	0.325	0.35	0.345	0.287	1.02	0.916	0.773	0.426	0.171	0.764	0.704	0.382	0.37
NCI-H1975	0.394	0.416	0.388	0.37	0.243	0.589	0.777	0.48	0.455	0.38	0.355	0.309	0.271	0.182	0.163	0.999	0.833	0.771	0.441
NCI-H1355	0.449	0.491	0.461	0.433	0.434	0.371	0.385	0.423	0.609	0.354	1.19	1.16	0.951	0.725	0.603	1.1	1.03	1.01	0.935
NCI-H1755	0.606	0.652	0.644	0.336	0.469	0.418	0.481	0.442	0.426	0.365	0.932	0.956	0.9	0.534	0.321	0.863	0.898	0.89	0.808
NCI-H2009	0.468	0.485	0.449	0.371	0.242	0.195	0.224	0.144	0.223	0.202	1.03	1.05	0.912	0.814	0.497	1.04	1.02	1.07	0.675
HCC-78	0.716	0.654	0.761	0.681	0.642	0.48	0.484	0.476	0.427	0.378	0.551	0.389	0.27	0.217	0.213	0.352	0.311	0.346	0.318
